Test results reported in article PMC8712301, “Novel CYP11B-ligand [^123/131I]IMAZA as promising theranostic tool for adrenocortical tumors: comprehensive preclinical characterization and first clinical experience” (European Journal of Nuclear Medicine and Molecular Imaging, 2021).

How the values were obtained:
[1] = tested on: advanced ACC; assay: Diagnostic imaging and biokinetics with [123I]IMTO and [123I]IMAZA in patients with advanced ACC; type: in vivo, human; design: AUC (time integral of the uptake function): concentration or dose not given beside the values
Experimental: Three patients (#1, #2, and #3) were investigated by [^123I]IMAZA (administered doses, 117, 163, and 182 MBq, respectively) and subsequently by [^123I]IMTO (176, 169, and 146 MBq, respectively). The time interval between the imaging studies was at least 5 days. Scintigraphic imaging was performed using a Siemens Symbia dual-head gamma camera equipped with medium-energy parallel-hole collimators. Activity concentration was measured in whole blood samples drawn at 2 min, 5 min, 15 min, 1 h, 2.5 h, 5 h, and 23 h after the administration. Plasma activity was analyzed in patient #1.

[2] = tested on: metastatic ACC; assay: Dosimetry and endoradiotherapy with [131I]IMAZA in a patient with metastatic ACC; type: in vivo, human
From the text: Patient #1 had experienced disease progression with a more than fourfold increase in their dominant lesions within only 4 months after a phase of disease stabilization after standard treatment with mitotane and eight courses of combination chemotherapy with etoposide, doxorubicin, and cisplatin. They received therapeutic doses with 28.2 GBq [^131I]IMAZA 1 month and with 30.5 GBq [^131I]IMAZA 7 months after the evaluation with [^123I]IMAZA. Prior to the first treatment, the absorbed dose to the blood was measured with a tracer activity of 72 MBq [^131I]IMAZA as a surrogate for the exposure of the dose-limiting organ, the red bone marrow. The absorbed dose to the blood was estimated from assessments of the activity kinetics in total body and blood up to 48 h when the mean activity concentrations had dropped to 5% of the values at 5 min after the administration in the total body and to 1% in the blood. During therapy, the total body activity retention was measured with a survey meter in the ceiling over the patient’s bed. Gamma camera whole body scans accompanied by blood sampling were acquired starting 4 days post-administration after the first and 2 days after the second therapy until dismissal. SPECT/CT imaging was performed after 4 and 5 days, respectively.
Tumor evaluation was performed by [^18F]FDG PET/CT at baseline and 2, 5, 8, 11, 14, and 21 months after administration of the first treatment dose. Subsequently, the patient declined further follow-up imaging or additional therapeutic interventions.

[3] = tested on: NCI-H295 cells; assay: Cellular subfractionation of NCI-H295 cells exposed to 125I-labeled tracers; type: cell-based, human
Experimental: (§1) NCI-H295 cells (n = 250,000 per vial) were incubated with 0.1 MBq of the respective ^125I-labeled tracer at 37 °C, 5% CO2. For the blocking experiment, the cells were co-incubated with etomidate. Aliquots were taken and immediately placed into a 4 °C ice bath. After 5 min, the solution was centrifuged and rinsed twice with PBS/0.5% Tween 80, and the collected rinse solution was measured in a gamma counter. Assays were performed in triplicates. The intracellular distribution of the respective ^125I-labeled inhibitors and the specific binding to mitochondrial membranes were verified using a commercially available kit (Qiagen Qproteome Mitochondria isolation).
(§2) Fig. 3 a In vitro uptake kinetics of [^125I]IMTO, [^125I]IMAZA, [^125I]3, and [^125I]4 in NCI-H295 cells. b Cellular uptake of [^125I]IMTO, [^125I]IMAZA, [^125I]3, and [^125I]4 in NCI-H295 cells with and without co-incubation with etomidate. Cells were incubated with 0.1 MBq of the respective compounds and co-incubated with (0.1 µM, 10 µM, 100 µM) etomidate to monitor the specific uptake (n = 3). c Cellular subfractionation of NCIH295 cells exposed to 0.1 MBq [^125I]IMTO, [^125I]IMAZA, [^125I]3, and [^125I]4 for 30 min at 37 °C. Distribution of the tracer compounds among the respective cellular subfractions

[4] = tested on: human adrenocortical and non-adrenocortical tissue cryosections; assay: Autoradiographic binding to human tissue cryosections
Experimental: Human tissues were quick frozen in liquid nitrogen to block further biological processes including protein degradation and stored at –80 °C. Frozen samples from adrenocortical carcinoma (ACC; n = 3), aldosterone-producing adenoma (APA; n = 2), and cortisol-producing adenoma (CPA; n = 2), normal adrenal, kidney, and liver were sectioned into 20-µm-thick tissue slices, thaw-mounted onto Superfrost slides (PAP PEN, Zymed® Laboratories) and stored at –80 °C until processing. For the experimental set up, the tissue slices were pre-incubated for 5 min at room temperature with buffer solution (pH 7.4, 50 mM Tris). Afterwards, the slices were directly incubated with TRIS HCl buffer solution containing 2% BSA. After 1-h blocking, slides were treated with 0.1 MBq of the different compounds. As controls, slides were incubated with 0.1 MBq of the compounds in 10 µM of the non-radioactive compound to assess binding specificity. In the following, slides were washed twice with 50 mM Tris HCl buffer solution (pH 7.4). For exposure, samples were placed on Phosphor Imager plates for 30 min in dedicated lead-shielded cassettes. Autoradiographic images were analyzed with a CR35BIO Image plate scanner, and data analysis was performed with Amide software version 0.9.0.
Fig. 5 Ex vivo imaging of normal adrenal gland, adrenocortical tumors, and control tissue (kidney, liver). Autoradiographic visualization of [^125I]IMTO and [^125I]IMAZA accumulation in the normal adrenal gland, in adrenocortical tumors (ACC, APA, CPA), kidney, and liver as control tissue (sections with 20 µm slice thickness) (representative example). […] The red circles show the position of the organs that are not shown in the imaging. A = 0.1 MBq tracer, B = 0.1 MBq tracer plus non-radioactive 10 µM inhibitor

[5] = Metabolic inactivation by human liver microsomes in vitro (radio-HPLC); type: in vitro ADME; conditions: human liver microsomes, radio-HPLC
Experimental: Metabolic degradation was determined by co-incubation of the tracers with human liver microsomes (Sigma, M0317). Experiments were conducted in triplicates. Incubation mixtures consisted of liver microsomes (0.2 mg/ml), the respective ^125I-labeled compound (0.1 MBq), MgCl2 (3.3 mM), and NADPH (1.3 mM) in a total volume of 0.6 ml K3PO4 puffer (25 mM, pH 7.2). The reaction was started with the addition of NADPH and incubated at 37 °C. At predefined time points, aliquots were removed, and the reaction was terminated by adding 160 µL ice-cold methanol. After centrifugation (5000 × g, 4 °C for 4 min), the supernatant was analyzed by radio-HPLC (see experimental details and Supplementary Fig. 1 in Supplement).

[6] = tested on: adrenal gland; assay: Biodistribution in male CD-1 mice; type: in vivo; conditions: for Uptake in the adrenals: i.v. 0.1 MBq
Experimental: Six- to 8-week old male CD-1 mice received 0.1 MBq [^125I]IMTO [17] or the ^125I-labeled IMTO-analogues as intravenous injection in the tail vein. At predefined time points, mice were sacrificed (min. n = 5 per time point). Blood and urine were collected, and several organs were excised and weighed, and tracer uptake was determined by measurement in a γ-counter.
Fig. 4 Biodistribution of [^125I]IMTO and the new compounds [^125I]IMAZA, [^125I]3, and [^125I]4 in male CD-1 mice. Mice were injected i.v. with 0.1 MBq of respective compounds. Ex vivo organ dosimetry was performed at predefined time points 15 min, 30 min, 120 min, and 240 min after tracer injection. Results are expressed as percentage of injected dose per gram organ (%ID/g). Exact numbers on uptake in the adrenal as %ID/g for the compounds are given in the supplemental data

[7] = tested on: NCI-H295 cells; assay: Cell uptake of 125I-labeled tracers in NCI-H295 cells, with and without etomidate; type: cell-based, human; design: Intracellular uptake with co-incubation of etomidate: dose or concentration left out as unconfirmed
Experimental: as §1
as §2, with “were incubated with 0.1 MBq of the respective compounds and co-incubated with (0.1 µM, 10 µM, 100 µM) etomidate to monitor the specific uptake” left out

[8] = patient #1, pre-therapeutic kinetics assessment with [131I]IMAZA
[9] = three patients with advanced ACC
[10] = tumor lesion: patient #1, lesion #1
[11] = tumor lesion: patient #1, lesion #2
[12] = tumor lesion: patient #2, lesion #1
[13] = tumor lesion: patient #3, lesion #1
[14] = tumor lesion: patient #3, lesion #2

Question: For `C[C@H](c1ccc([131I])cc1)n1cncc1C(=O)N1CCC1` [[^131I]IMAZA], which “Mean blood absorbed dose” value ([1]; kinetics recalculated for 131I from 123I diagnostics in patients) is on record?
Answer: Its value is 0.03 Gy/GBq.

Question: What about the “Long-term disease stabilization (progression-free survival)” value ([2]; patient #1, after first treatment) of the same molecule?
Answer: The value was 21 months.

Question: What about the “Survival (overall survival)” value ([2]; patient #1, after initial endoradiotherapy) of the same molecule?
Answer: The value was 30 months.

Question: What about the “Absorbed dose for both the liver and the kidney” value ([2]; patient #1, estimated) of the same molecule?
Answer: The value was “below 0.2 Gy/GBq”.

Question: What about the “Absorbed dose to the blood” value ([2]; patient #1, first therapy with 28.2 GBq) of the same molecule?
Answer: Its value is 1.1 Gy.

Question: And the “Activity giving an absorbed dose to the blood of 2 Gy” value ([2]; patient #1, pre-therapeutic kinetics assessment)?
Answer: Its value is 63 GBq.

Question: And the “Absorbed dose to the blood” value [2, 8]?
Answer: Its value is 0.032 Gy/GBq.

Question: What about the “Residence time in the whole blood” value [2, 8] of the same molecule?
Answer: The value was 0.17 h per liter of whole blood.

Question: What about the “Residence time in the total body” value ([2]; patient #1, pre-therapeutic kinetics assessment with tracer activity) of the same molecule?
Answer: Its value is 10.9 h.

Question: Which results are given for `C[C@H](c1ccc([125I])cc1)n1cncc1C(=O)N1CCC1` [[^125I]IMAZA]?
Answer: Subcellular distribution compared with [125I]IMTO ([3]; 30 min): similar; Autoradiographic signal compared with [125I]IMTO ([4]; human adrenocortical tissue): distinctively stronger; Binding to control tissue (liver, kidney) ([4]; human liver n = 2, kidney n = 1): no binding was detected; Binding to ACC, APA, and CPA tissue ([4]; human tissue sections 20 µm, 0.1 MBq tracer, ± 10 µM non-radioactive compound): very strong and specific binding; Metabolic stability compared with [125I]IMTO [5]: more than threefold longer half-life; Uptake in the non-target organs ([6]; male CD-1 mice): extremely low uptake values; Uptake in the adrenals ([6]; male CD-1 mice, 15 min): 710.9 ± 210.5 %ID/g; Uptake in the adrenals ([6]; male CD-1 mice, 30 min): 720.4 ± 169.7 %ID/g; Uptake in the adrenals ([6]; male CD-1 mice, 120 min): 395.7 ± 92.7 %ID/g; Uptake in the adrenals ([6]; male CD-1 mice, 240 min): 275.4 ± 124.1 %ID/g; Uptake at the latest time point, times higher compared to [125I]IMTO ([6]; mice): 10 times; Tracer uptake and target to background ratios compared with [125I]IMTO ([6]; mice biodistribution): higher tracer uptake with better target to background ratios; Intracellular uptake with co-incubation of etomidate ([7]; NCI-H295 cells): 8.6%; Uptake with co-incubation of etomidate ([7]; NCI-H295 cells, highest concentration 100 µM etomidate): almost completely blocked; Intracellular uptake in NCI-H295 cells compared with [125I]IMTO ([7]; at 30 min): highest uptake

Question: Which “Accumulation in the cytosolic fraction” value ([3]; 0.1 MBq, 30 min at 37 °C) does the source give for `COC(=O)c1cncn1C(C)c1ccc([125I])cc1` (stereo not drawn) [[^125I]IMTO, reference compound] here?
Answer: Its value is 7%.

Question: What about the “Accumulation in the mitochondrial subfraction” value ([3]; 0.1 MBq, 30 min at 37 °C) of the same molecule?
Answer: The value was 59.4%.

Question: What about the “Accumulation in the nuclei, cell debris subfraction” value ([3]; 0.1 MBq, 30 min at 37 °C) of the same molecule?
Answer: The value was 33.6%.

Question: What about the “Uptake in the adrenals” value ([6]; male CD-1 mice, 15 min) of the same molecule?
Answer: Its value is 491.2 ± 170.3 %ID/g.

Question: What about the “Uptake in the adrenals” value ([6]; male CD-1 mice, 30 min) of the same molecule?
Answer: The value was 321.3 ± 170.6 %ID/g.

Question: What about the “Uptake in the adrenals” value ([6]; male CD-1 mice, 120 min) of the same molecule?
Answer: The value was 80.5 ± 43.7 %ID/g.

Question: What about the “Uptake in the adrenals” value ([6]; male CD-1 mice, 240 min) of the same molecule?
Answer: Its value is 27.4 ± 25.9 %ID/g.

Question: What about the “Intracellular uptake with co-incubation of etomidate” value ([7]; NCI-H295 cells) of the same molecule?
Answer: The value was 28.2%.

Question: And the “Intracellular uptake in NCI-H295 cells” value ([7]; after 30 min, 0.1 MBq tracer, 37 °C)?
Answer: The value was 36.4%.

Question: What does the source list for `COC(=O)c1cncn1[C@H](C)c1ccc([123I])cc1` [[^123I]IMTO, [^123I]iodometomidate]?
Answer: AUC (time integral of the uptake function) ([1]; median of five tumor lesions): 0.0024 h/g; effective half-live ([1]; median of five tumor lesions): 11.0 h; uptake ([1]; median of five tumor lesions): 0.011 %/g; Activity concentration in plasma, times higher than in whole blood ([1]; patient #1, hematocrit 35%): 1.16 times; Residence time per liter of whole blood, times higher than for [123I]IMAZA [1, 9]: 3.6 ± 1.5 times; Total body residence time, times higher than for [123I]IMAZA [1, 9]: 2.2 ± 0.2 times; AUC (time integral of the uptake function) [1, 10]: 0.0031 h/g; effective half-live [1, 10]: 11.2 h; uptake ([1]; tumor lesion: patient #1, lesion #1, SPECT/CT, normalised to administered activity): 0.015 %/g; AUC (time integral of the uptake function) [1, 11]: 0.0024 h/g; effective half-live [1, 11]: 11.0 h; uptake ([1]; tumor lesion: patient #1, lesion #2, SPECT/CT): 0.011 %/g; AUC (time integral of the uptake function) [1, 12]: 0.0016 h/g; effective half-live [1, 12]: 12.4 h; uptake ([1]; tumor lesion: patient #2, lesion #1, SPECT/CT): 0.006 %/g; AUC (time integral of the uptake function) [1, 13]: 0.0017 h/g; effective half-live [1, 13]: 8.0 h; uptake ([1]; tumor lesion: patient #3, lesion #1, SPECT/CT): 0.010 %/g; AUC (time integral of the uptake function) [1, 14]: 0.0056 h/g; effective half-live [1, 14]: 10.1 h; uptake ([1]; tumor lesion: patient #3, lesion #2, SPECT/CT): 0.027 %/g
